What follows are compounds tested on wild-type red mold strain GZ3639 (assay: Inhibition of spore germination / reactive oxygen species generation through NOX enzyme inhibition in red mold). Settings: 24 h, read-out: IC50 (µM), compound concentration at which the spore germination inhibition rate was 50%.
Format: cell-based
Procedure: When NADPH oxidase (NOX), which is involved in the generation of reactive oxygen species in red mold, is inhibited, normal mycelial growth is inhibited, abnormal form of monocyclic conidia is formed, and germination is inhibited. The abnormal phenotype caused by the reduction of reactive oxygen species in red mold can be easily observed under an optical microscope. Through this, the ability to inhibit generation of reactive oxygen species through NOX inhibition was evaluated.
Specifically, for the evaluation of compound activity, 0.1 mM of the compound was added to a minimum medium (MM20) spore suspension diluted to ⅕. Spores ([…]) of wild-type red mold strain GZ3639 were inoculated into the medium and cultured at 25° C. for 24 h, followed by microscopic observation. Compounds having a germination inhibition rate and microcycle conidiation to be 50% or more of those in normal germination were selected, and their activities were evaluated at concentrations of 50 µM, 25 µM, and 10 µM. At this time, the activity of substances having a germination inhibition rate of 95% at 10 µM was further evaluated at concentrations of 5 µM, 1 µM, 0.5 µM, and 0.1 µM. Based on the result of this evaluation, the compound concentration (inhibitory concentration 50%, IC50) at which the spore germination inhibition rate was 50% was determined.
With `CN1C(=[Se])N(c2ccccc2)C(=O)/C1=C\c1ccc(N(C)C)cc1` [Compound 3, 5-(4-(dimethylamino)benzylidene)-1-methyl-3-phenyl-2-selenoxoimidazolidine-4-on] the IC50 was 26 µM.
`CN1C(=[Se])N(c2ccccc2)C(=O)/C1=C\c1ccc(N2CCCC2)cc1` [Compound 7, 1-methyl-3-phenyl-5-(4-pyrrolidine-1-yl)benzylidene-2-selenoxoimidazolidine-4-on] gave an IC50 of 16 µM.
Compound `CN1C(=[Se])N(c2ccccc2)C(=O)/C1=C\c1cccc(O)c1` [Compound 8, 5-(3-hydroxybenzylidene)-1-methyl-3-phenyl-2-selenoxoimidazolidine-4-on] has an IC50 of 41 µM.
`CN1C(=[Se])N(c2ccccc2)C(=O)/C1=C\c1cccnc1` [Compound 9, 1-methyl-3-phenyl-5-(pyridine-3-ylmethylene)-2-selenoxoimidazolidine-4-on] showed an IC50 of 37 µM.
With `Cc1ccc(N2C(=O)/C(=C\c3cccc(O)c3O)N(C)C2=[Se])cc1` [Compound 11, 5-(2,3-dihydroxybenzylidene)-1-methyl-3-(4-tolyl)-2-selenoxoimidazolidine-4-on] the IC50 was 46 µM.
In the case of `Cc1ccc(N2C(=O)/C(=C\c3ccc(Br)cc3)N(C)C2=[Se])cc1` [Compound 16, 5-(4-bromobenzylidene)-1-methyl-2-selenoxo-3-(4-tolyl)imidazolidine-4-on], the IC50 is reported as 46 µM.
With `Cc1ccc(N2C(=O)/C(=C\c3ccc(N4CCCC4)cc3)N(C)C2=[Se])cc1` [Compound 17, 1-methyl-5-(4-pyrrolidine-1-yl)benzylidene-2-selenoxo-3-(4-tolyl)imidazolidine-4-on] the IC50 was 11 µM.
Work on `Cc1ccc(N2C(=O)/C(=C\c3ccc(O)cc3)N(C)C2=[Se])cc1` [Compound 18, 5-(4-hydroxybenzylidene)-1-methyl-2-selenoxo-3-(4-tolyl)imidazolidine-4-on] yielded an IC50 of 13 µM.
`Cc1ccc(N2C(=O)/C(=C\c3cccnc3)N(C)C2=[Se])cc1` [Compound 19, 1-methyl-5-(pyridine-3-ylmethylene)-2-selenoxo-3-(4-tolyl)imidazolidine-4-on] showed an IC50 of 41 µM.
With `Cc1ccc(N2C(=O)/C(=C\c3ccc(NCCN4CCOCC4)cc3)N(C)C2=[Se])cc1` [Compound 23, 1-methyl-5-(4-((2-morpholinoethyl)amino)benzylidene)-2-selenoxo-3-(4-tolyl)imidazolidine-4-on] the IC50 was 5.2 µM.
With `CCc1ccc(N2C(=O)/C(=C\c3ccc(O)cc3O)N(C)C2=[Se])cc1` [Compound 24, 5-(2,4-dihydroxybenzylidene)-3-(4-ethylphenyl)-1-methyl-2-selenoxoimidazolidine-4-on] the IC50 was 14 µM.
In the case of `CCc1ccc(N2C(=O)/C(=C\c3ccc(N4CCCCC4)cc3)N(C)C2=[Se])cc1` [Compound 28, 3-(4-ethylphenyl)-1-methyl-5-(4-(piperidine-1-yl)benzylidene)-2-selenoxoimidazolidine-4-on], the IC50 is reported as 11 µM.
For `CCc1ccc(N2C(=O)/C(=C\c3ccc(Br)cc3)N(C)C2=[Se])cc1` [Compound 29, 5-(4-bromobenzylidene)-3-(4-ethylphenyl)-1-methyl-2-selenoxoimidazolidine-4-on], the IC50 was 11 µM.
`CCc1ccc(N2C(=O)/C(=C\c3cccnc3)N(C)C2=[Se])cc1` [Compound 31, 3-(4-ethylphenyl)-1-methyl-5-(pyridine-3-ylmethylene)-2-selenoxoimidazolidine-4-on] was tested, and the IC50 was 30 µM.
Work on `CN1C(=[Se])N(c2ccc(Cl)cc2)C(=O)/C1=C\c1ccc(O)cc1O` [Compound 35, 3-(4-chlorophenyl)-5-(2,4-dihydroxybenzylidene)-1-methyl-2-selenoxoimidazolidine-4-on] yielded an IC50 of 31 µM.
`CN1C(=[Se])N(c2ccc(Cl)cc2)C(=O)/C1=C\c1cccc(O)c1O` [Compound 36, 3-(4-chlorophenyl)-5-(2,3-dihydroxybenzylidene)-1-methyl-2-selenoxoimidazolidine-4-on] gave an IC50 of 46 µM.
Compound `CN1C(=[Se])N(c2ccc(Cl)cc2)C(=O)/C1=C\c1ccc(O)c(O)c1` [Compound 37, 3-(4-chlorophenyl)-5-(3,4-dihydroxybenzylidene)-1-methyl-2-selenoxoimidazolidine-4-on] has an IC50 of 20 µM.
Compound `CN1C(=[Se])N(c2ccc(Cl)cc2)C(=O)/C1=C\c1cc(O)cc(O)c1` [Compound 38, 3-(4-chlorophenyl)-5-(3,5-dihydroxybenzylidene)-1-methyl-2-selenoxoimidazolidine-4-on] has an IC50 of 56 µM.
`CN1C(=[Se])N(c2ccc(Cl)cc2)C(=O)/C1=C\c1cccnc1` [Compound 39, 3-(4-chlorophenyl)-1-methyl-5-(pyridine-3-ylmethylene)-2-selenoxoimidazolidine-4-on] was tested, and the IC50 was 27 µM.
With `CN1C(=[Se])N(c2cccc(Cl)c2)C(=O)/C1=C\c1cccc(O)c1O` [Compound 40, 3-(3-chlorophenyl)-5-(2,3-dihydroxybenzylidene)-1-methyl-2-selenoxoimidazolidine-4-on] the IC50 was 42 µM.
`CN1C(=[Se])N(CCc2ccccc2)C(=O)/C1=C\c1ccc(O)cc1O` [Compound 41, 5-(2,4-dihydroxybenzylidene)-1-methyl-3-phenethyl-2-selenoxoimidazolidine-4-on] was tested, and the IC50 was 9.8 µM.
In the case of `CN1C(=[Se])N(CCc2ccccc2)C(=O)/C1=C\c1ccc(N(C)C)cc1` [Compound 43, 5-(4-(dimethylamino)benzylidene)-1-methyl-3-phenethyl-2-selenoxoimidazolidine-4-on], the IC50 is reported as 23 µM.
`CN1C(=[Se])N(CCc2ccccc2)C(=O)/C1=C\c1ccc(N2CCOCC2)cc1` [Compound 52, 1-methyl-5-(4-morpholinobenzylidene)-3-phenethyl-2-selenoxoimidazolidine-4-on] showed an IC50 of 3.5 µM.
In the case of `CN1C(=[Se])N(C2CCCCC2)C(=O)/C1=C\c1ccc(O)cc1O` [Compound 55, 3-cyclohexyl-5-(2,4-dihydroxybenzylidene)-1-methyl-2-selenoxoimidazolidine-4-on], the IC50 is reported as 1 µM.
`CN1C(=[Se])N(C2CCCCC2)C(=O)/C1=C\c1cccc(O)c1O` [Compound 56, 3-cyclohexyl-5-(2,3-dihydroxybenzylidene)-1-methyl-2-selenoxoimidazolidine-4-on] showed an IC50 of 18 µM.
Compound `CN1C(=[Se])N(C2CCCCC2)C(=O)/C1=C\c1ccc(N(C)C)cc1` [Compound 57] has an IC50 of 46 µM.
In the case of `CN1C(=[Se])N(C2CCCCC2)C(=O)/C1=C\c1cc(O)cc(O)c1` [Compound 58, 3-cyclohexyl-5-(3,5-dihydroxybenzylidene)-1-methyl-2-selenoxoimidazolidine-4-on], the IC50 is reported as 18 µM.
Work on `CCCCCCN1C(=O)/C(=C\c2cccc(O)c2O)N(C)C1=[Se]` [Compound 60, 5-(2,3-dihydroxybenzylidene)-3-hexyl-1-methyl-2-selenoxoimidazolidine-4-on] yielded an IC50 of 6 µM.
For `CCCCCCN1C(=O)/C(=C\c2ccc(N(C)C)cc2)N(C)C1=[Se]` [Compound 61, 5-(4-(dimethylamino)benzylidene)-3-hexyl-1-methyl-2-selenoxoimidazolidine-4-on], the IC50 was 33 µM.
With `CCCCCCN1C(=O)/C(=C\c2cc(O)cc(O)c2)N(C)C1=[Se]` [Compound 62, 5-(3,5-dihydroxybenzylidene)-3-hexyl-1-methyl-2-selenoxoimidazolidine-4-on] the IC50 was 5 µM.
Compound `CCCCCCN1C(=O)/C(=C\c2ccc(N3CCOCC3)cc2)N(C)C1=[Se]` [Compound 63, 3-hexyl-1-methyl-5-(4-morpholinobenzylidene)-2-selenoxoimidazolidine-4-on] has an IC50 of 0.5 µM.
For `CCCCCCN1C(=O)/C(=C\c2ccc(NCCOCCF)cc2)N(C)C1=[Se]` [Compound 67, 5-(4-((2-(2-fluoroethoxy)ethyl)amino)benzylidene)-3-hexyl-1-methyl-2-selenoxoimidazolidine-4-on], the IC50 was 0.45 µM.
`CN1C(=[Se])N(C2CCCC2)C(=O)/C1=C\c1ccc(O)cc1O` [Compound 68, 3-cyclopentyl-5-(2,4-dihydroxybenzylidene)-1-methyl-2-selenoxoimidazolidine-4-on] was tested, and the IC50 was 3 µM.
In the case of `CN1C(=[Se])N(C2CCCC2)C(=O)/C1=C\c1cccc(O)c1O` [Compound 69, 3-cyclopentyl-5-(2,3-dihydroxybenzylidene)-1-methyl-2-selenoxoimidazolidine-4-on], the IC50 is reported as 14 µM.
`CN1C(=[Se])N(C2CCCC2)C(=O)/C1=C\c1ccc(N(C)C)cc1` [Compound 70, 3-cyclopentyl-5-(4-(dimethylamino)benzylidene)-1-methyl-2-selenoxoimidazolidine-4-on] was tested, and the IC50 was 26 µM.
Compound `CN1C(=[Se])N(C2CCCC2)C(=O)/C1=C\c1ccc(O)c(O)c1` [Compound 71, 3-cyclopentyl-5-(3,4-dihydroxybenzylidene)-1-methyl-2-selenoxoimidazolidine-4-on] has an IC50 of 26 µM.
Work on `CN1C(=[Se])N(c2ccc(F)cc2)C(=O)/C1=C\c1ccc(N(C)C)cc1` [Compound 75, 5-(4-(dimethylamino)benzylidene)-3-(4-fluorophenyl)-1-methyl-2-selenoxoimidazolidine-4-on] yielded an IC50 of 23 µM.
Work on `CN1C(=[Se])N(CCCN2CCOCC2)C(=O)/C1=C\c1ccc(Cl)cc1` [Compound 85, 5-(4-chlorobenzylidene)-1-methyl-3-(3-morpholinopropyl)-2-selenoxoimidazolidine-4-on] yielded an IC50 of 5 µM.
`CN1C(=[Se])N(CCCCCCF)C(=O)/C1=C\c1cc(O)cc(O)c1` [Compound 88] gave an IC50 of 18 µM.
`CN1C(=[Se])N(CCCCCF)C(=O)/C1=C\c1ccc(O)cc1O` [Compound 89, 5-(2,4-dihydroxybenzylidene)-3-(5-fluoropentyl)-1-methyl-2-selenoxoimidazolidine-4-on] gave an IC50 of 13 µM.

Reference: patent US20230286956A1 (DUKSUNG WOMEN'S UNIVERSITY INDUSTRY-ACADEMIC COOPERATION …, priority 2020, published 2023)
